Assay [1] has as its system Peritoneal macrophage. Description: Anti-inflammatory activity in C57BL/6 mouse primary peritoneal macrophages assessed as inhibition of LPS-induced IL-6 secretion at 10 uM preincubated for 30 mins followed by LPS addition measured after 24 hrs by ELISA relative to control. The conditions noted are these: C57BL/6, Peritoneal macrophage. Format: functional. A general note: ELISA stands for enzyme-linked immunosorbent assay.

For assay [2], the system named is Peritoneal macrophage. Description: Anti-inflammatory activity in C57BL/6 mouse primary peritoneal macrophages assessed as inhibition of LPS-induced TNFalpha secretion at 1 to 10 uM preincubated for 30 mins followed by LPS addition measured after 24 hrs by ELISA. The class given is functional, cell-based.
Assay [3] relates to Rattus norvegicus. Put plainly: Anti-inflammatory activity in Sprague-Dawley rat model of LPS-induced acute lung injury assessed as reduction in pulmonary edema at 20 mg/kg, po administered daily for 1 week followed by LPS addition at 30 mins post last dose measured after 6 hrs. The class given is functional, organism-based.
In assay [4] the test system is Rattus norvegicus. Put plainly: Anti-inflammatory activity in Sprague-Dawley rat model of LPS-induced acute lung injury assessed as reduction in ICAM1 mRNA level in lungs at 20 mg/kg, po administered daily for 1 week followed by LPS addition at 30 mins post last dose measured after 6 hrs by qRT-PCR method. Format: functional, organism-based. In general terms: Quantitative PCR measures a nucleic acid by following its amplification.

The target in assay [5] is Mitogen-activated protein kinase 1 (Homo sapiens) (UniProt P28482). Put plainly: Inhibition of recombinant human full length N-terminal GST-tagged ERK2 (1 to 360 end residues) expressed in Escherichia coli at 0.1 uM after 1 hr by caliper mobility shift assay relative to control.
Assay [6] has as its system Rattus norvegicus. Description: Anti-inflammatory activity in Sprague-Dawley rat model of LPS-induced acute lung injury assessed as reduction in TNFalpha level in BALF at 20 mg/kg, po administered daily for 1 week followed by LPS addition at 30 mins post last dose measured after 6 hrs by ELISA. Format: functional, organism-based.
The subject of assay [7] is Rattus norvegicus. Description: Anti-inflammatory activity in Sprague-Dawley rat model of LPS-induced acute lung injury assessed as reduction in IL-1beta mRNA level in lungs at 20 mg/kg, po administered daily for 1 week followed by LPS addition at 30 mins post last dose measured after 6 hrs by qRT-PCR method. Format: functional, organism-based.
Assay [8] addresses T1, Inhibitor of nuclear factor kappa-B kinase subunit beta (Homo sapiens) (UniProt O14920).
T1 sequence (whole entry): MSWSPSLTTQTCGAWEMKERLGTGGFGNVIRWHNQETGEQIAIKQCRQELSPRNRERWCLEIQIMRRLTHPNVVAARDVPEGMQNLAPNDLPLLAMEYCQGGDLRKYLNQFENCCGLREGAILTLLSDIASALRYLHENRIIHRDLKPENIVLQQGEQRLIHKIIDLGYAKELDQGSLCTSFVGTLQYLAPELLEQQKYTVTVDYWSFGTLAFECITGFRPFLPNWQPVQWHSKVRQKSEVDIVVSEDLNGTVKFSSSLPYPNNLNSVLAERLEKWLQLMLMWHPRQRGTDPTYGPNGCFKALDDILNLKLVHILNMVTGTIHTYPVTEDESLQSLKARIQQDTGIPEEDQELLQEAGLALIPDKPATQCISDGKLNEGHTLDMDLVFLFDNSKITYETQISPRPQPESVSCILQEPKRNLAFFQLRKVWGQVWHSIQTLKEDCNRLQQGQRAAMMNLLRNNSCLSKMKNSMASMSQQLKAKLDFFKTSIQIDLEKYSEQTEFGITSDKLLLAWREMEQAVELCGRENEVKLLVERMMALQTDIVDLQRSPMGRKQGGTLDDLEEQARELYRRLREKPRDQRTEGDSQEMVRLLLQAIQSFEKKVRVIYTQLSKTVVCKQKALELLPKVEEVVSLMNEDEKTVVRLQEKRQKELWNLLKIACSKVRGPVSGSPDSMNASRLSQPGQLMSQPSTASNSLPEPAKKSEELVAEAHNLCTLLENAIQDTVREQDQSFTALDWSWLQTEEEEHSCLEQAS
Put plainly: Inhibition of recombinant human N-terminal His-tagged IKKbeta (1 to 662 residues) expressed in baculovirus expression system at 1 uM after 1 hr by caliper mobility shift assay relative to control.

Assay [9] concerns Peritoneal macrophage. Put plainly: Inhibition of LPS-induced COX2 mRNA expression in C57BL/6 mouse primary peritoneal macrophages at 10 uM preincubated for 30 mins followed by LPS addition measured after 24 hrs by qRT-PCR analysis. Format: functional, cell-based.
Assay [10] deals with Rattus norvegicus. Put plainly: Anti-inflammatory activity in Sprague-Dawley rat model of LPS-induced acute lung injury assessed as reduction in neutrophil extravasation in lungs by measuring tissue myeloperoxidase activity at 20 mg/kg, po administered daily for 1 week followed by LPS addition at 30 mins post last dose measured after 6 hrs by spectrophotometric method. Format: functional. Further details: scale not given: the % may be the effect or the level left.

Assay [11] concerns Rattus norvegicus. Put plainly: Anti-inflammatory activity in Sprague-Dawley rat model of LPS-induced acute lung injury assessed as reduction in leukocytic extravasation in lungs by measuring number of cells in BALF at 20 mg/kg, po administered daily for 1 week followed by LPS addition at 30 mins post last dose measured after 6 hrs by Wright-Giemsa staining based light microscopic assay. The class given is functional, organism-based.

Assay [12] concerns Rattus norvegicus. Put plainly: Anti-inflammatory activity in Sprague-Dawley rat model of LPS-induced acute lung injury assessed as reduction in VCAM1 mRNA level in lungs at 20 mg/kg, po administered daily for 1 week followed by LPS addition at 30 mins post last dose measured after 6 hrs by qRT-PCR method. Format: functional, organism-based.
The test system of assay [13] is Peritoneal macrophage. Put plainly: Anti-inflammatory activity in C57BL/6 mouse primary peritoneal macrophages assessed as inhibition of LPS-induced TNFalpha secretion at 10 uM preincubated for 30 mins followed by LPS addition measured after 24 hrs by ELISA relative to control. The class given is functional. The conditions noted are these: C57BL/6, Peritoneal macrophage.

Assay [14] concerns Rattus norvegicus. Description: Anti-inflammatory activity in Sprague-Dawley rat model of LPS-induced acute lung injury assessed as reduction in TNFalpha level in serum at 20 mg/kg, po administered daily for 1 week followed by LPS addition at 30 mins post last dose measured after 6 hrs by ELISA. The class given is functional, organism-based.
Another assay concerns RAW264.7. Put plainly: Inhibition of MD2 in […] cells harboring NF-kB-luc assessed as inhibition of LPS-induced TLR4 activation-mediated NF-kB transcriptional activity at 2.5 uM preincubated with cells followed by LPS addition measured after 6 hrs by luciferase reporter gene assay. The class given is cell-based. In general terms: A reporter such as luciferase makes a cellular process visible.

In assay [15] the target is Interleukin-1 receptor-associated kinase 1 (Homo sapiens) (UniProt P51617). Description: Inhibition of recombinant human N-terminal GST-tagged IRAK1 (194 to 712 residues) expressed in baculovirus expression system at 0.1 uM after 1 hr by caliper mobility shift assay relative to control.

Activity calls are given as the source filed them. The calls are words filed in the database; no cut-off is given here. Some results are limits rather than exact numbers.

Sequence of Mitogen-activated protein kinase 1 (Homo sapiens) (P28482 whole entry): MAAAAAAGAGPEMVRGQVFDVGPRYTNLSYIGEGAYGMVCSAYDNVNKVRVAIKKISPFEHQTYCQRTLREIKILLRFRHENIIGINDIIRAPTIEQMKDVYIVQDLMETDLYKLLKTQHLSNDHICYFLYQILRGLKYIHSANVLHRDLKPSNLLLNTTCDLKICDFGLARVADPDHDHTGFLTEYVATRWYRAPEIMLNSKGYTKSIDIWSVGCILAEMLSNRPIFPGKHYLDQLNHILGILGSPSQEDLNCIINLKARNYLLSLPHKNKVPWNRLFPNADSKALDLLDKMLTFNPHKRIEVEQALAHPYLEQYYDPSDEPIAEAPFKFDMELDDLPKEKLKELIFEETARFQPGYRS
Sequence of Interleukin-1 receptor-associated kinase 1 (Homo sapiens) (P51617 whole entry, looked up, the tested form may be a part): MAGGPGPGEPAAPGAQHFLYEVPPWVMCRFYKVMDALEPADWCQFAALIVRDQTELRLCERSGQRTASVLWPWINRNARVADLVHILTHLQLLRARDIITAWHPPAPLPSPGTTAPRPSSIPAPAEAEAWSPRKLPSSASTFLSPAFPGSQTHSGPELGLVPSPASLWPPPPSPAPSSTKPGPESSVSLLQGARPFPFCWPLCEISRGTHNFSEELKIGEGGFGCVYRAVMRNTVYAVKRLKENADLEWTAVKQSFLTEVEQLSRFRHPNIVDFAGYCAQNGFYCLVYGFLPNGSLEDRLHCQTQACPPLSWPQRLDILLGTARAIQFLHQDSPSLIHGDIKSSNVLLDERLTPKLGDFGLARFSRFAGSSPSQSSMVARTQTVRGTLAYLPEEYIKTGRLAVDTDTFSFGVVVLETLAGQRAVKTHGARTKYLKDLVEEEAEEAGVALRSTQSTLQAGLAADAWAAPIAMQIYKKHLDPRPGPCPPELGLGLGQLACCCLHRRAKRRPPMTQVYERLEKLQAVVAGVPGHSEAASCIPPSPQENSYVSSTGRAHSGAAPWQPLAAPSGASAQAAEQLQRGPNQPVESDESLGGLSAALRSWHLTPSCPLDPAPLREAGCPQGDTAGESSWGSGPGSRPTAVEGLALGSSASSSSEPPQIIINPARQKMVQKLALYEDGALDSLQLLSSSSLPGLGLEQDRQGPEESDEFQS

The term inhibition denotes the relative decrease from the control value, in per cent. For `COc1cc(/C=C2\CN(C)C/C(=C\c3cc(OC)c(OC)c(OC)c3)C2=O)cc(OC)c1OC`, the inhibition at 10 µM with Peritoneal macrophage [1] and in the assay with Peritoneal macrophage [13] was more than 90% each time. Besides, the inhibition result with Peritoneal macrophage [2], in the assay on Peritoneal macrophage [9] and with RAW264.7 was “Active” in each case. The outcome with Rattus norvegicus [3], in the assay with Rattus norvegicus [4], with Rattus norvegicus [6], with Rattus norvegicus [7], with Rattus norvegicus [11] and with Rattus norvegicus [12] was Active. The result in the assay on Rattus norvegicus [14] was Active. Besides, the inhibition in assay [5] was 11.7%; in assay [8], 6.3%; in assay [15], 7.7%. Further, the Activity in the assay on Rattus norvegicus [10] is 40%.

With `COc1cc(/C=C2\COC/C(=C\c3cc(OC)c(OC)c(OC)c3)C2=O)cc(OC)c1OC`, the inhibition at 10 µM in the assay with Peritoneal macrophage [1] and in the assay on Peritoneal macrophage [13] was more than 90% each time. Moreover, the inhibition result in the assay with Peritoneal macrophage [2], in the assay with Peritoneal macrophage [9] and in the assay on RAW264.7 was “Active” each time. For the same compound, the outcome in the assay on Rattus norvegicus [3] and with Rattus norvegicus [11] was Active. Also, the inhibition stood at 21.3% in assay [5], 13.3% in assay [8] and 15.9% in assay [15]. For the same compound, the Activity in the assay with Rattus norvegicus [10] is 40%.

The values above are taken from ChEMBL document CHEMBL4196029, “New MD2 inhibitors derived from curcumin with improved anti-inflammatory activity” (Eur J Med Chem, 2018).
